Data reported in the NIST ThermoML archive (doi:10.1021/acs.jced.6b00655).
Values joined by “and” are separate entries in the source; they are usually repeats but may differ in a detail not shown here. Equal values may be shown once. ± gives the expanded uncertainty stated by the source.

Details: 283.15 K; 100 kPa; Liquid; Vibrating tube method

CCCC[N+]1(C)CCCC1.O=S(=O)([O-])C(F)(F)F [1-butyl-1-methylpyrrolidinium trifluoromethanesulfonate]
mass density: 1263.28 ± 10 kg/m3 and 1263.17 ± 10 kg/m3
